Experimental data from patent US7569724B2, “Carbamic acid compounds comprising an amide linkage as HDAC inhibitors” (Topotarget UK Limited, priority 2000, dated 2009).
pIC50: −log10 of the molar value. Like-named read-outs stand apart in the source and are kept apart here.

Assays:
HeLa cells = assay: Secondary assay: cell proliferation WST-1, HeLa; format: cell-based; details: Homo sapiens, 48 h, read-out: Cell Proliferation Inhibition WST-1 (IC50 unless otherwise specified) HeLa
Procedure: (§1) Compounds with HDAC inhibition activity, as determined using the primary assay, were subsequently evaluated using secondary cell-based assays. The following cell lines were used:
HeLa—Human cervical adenocarcinoma cell line (ATCC ref. No. CCL-2).
(§2) Cells were plated in 96-well plates at 3-10×10^3 cells/well in 100 μL of culture medium. The following day, different concentrations of candidate compounds were added and the cells incubated at 37° C. for 48 h. Subsequently, 10 μL/well of WST-1 reagent was added and the cells reincubated for 1 hour. After the incubation time, absorbance was measured.
(§3) WST-1 is a tetrazolium salt which is cleaved to formazan dye by cellular enzymes. An expansion in the number of viable cells results in an increase in the overall activity of mitochondrial dehydrogenases in the sample. This augmentation in the enzyme activity leads to an increase in the amount of formazan dye formed, which directly correlates to the number of metabolically active cells in the culture. The formazan dye produced is quantified by a scanning multiwell spectrophotometer by measuring the absorbance of the dye solution at 450 nm wavelength (reference wavelength 690 nm).
(§4) Percent activity (% activity) in reducing the number of viable cells was calculated for each test compound as: % activity={(S^C−B)/(S^o−B)}×100 wherein S^C denotes signal measured in the presence of the compound being tested, S^o denotes signal measured in the absence of the compound being tested, and B denotes the background signal measured in blank wells containing medium only.
(§5) IC50 values were calculated using the software package Prism 3.0 (GraphPad software Inc., San Diego, Calif.), setting top value at 100 and bottom value at 0.

HDAC (HeLa cell extract) = assay: Primary assay: deacetylase activity, HeLa cell extract as source of HDAC; format: biochemical, human; details: HeLa cell extract; for HDAC Inhibition HeLa, percent: @ 500 nM
Description: Briefly, this assay relies on the release of radioactive acetate from a radioactively labelled histone fragment by the action of HDAC enzyme. Test compounds, which inhibit HDAC, reduce the yield of radioactive acetate. Signal (e.g., scintillation counts) measured in the presence and absence of a test compound provide an indication of that compound's ability to inhibit HDAC activity. Decreased activity indicates increased inhibition by the test compound.
The histone fragment was an N-terminal sequence from histone H4, and it was labelled with radioactively labelled acetyl groups using tritiated acetylcoenzyme A (coA) in conjunction with an enzyme which is the histone acetyltransferase domain of the transcriptional coactivator p300. […] The acetylated peptide was then separated from free acetyl coA by size exclusion chromatography on Sephadex G-15 (Sigma G-15-120), using distilled H2O as the mobile phase.
After purification of the radiolabelled histone fragment, it was incubated with a source of HDAC (e.g., an extract of HeLa cells (a rich source of HDAC), recombinantly produced HDAC1 or HDAC2) and any released acetate was extracted into an organic phase and quantitatively determined using scintillation counting. By including a test compound with the source of HDAC, that compound's ability to inhibit the HDAC was determined.
The HeLa cell extract was made from HeLa cells (ATCC Ref. No. CCL-2) by freeze-thawing three times in 60 mM TrisCl pH 8.0, 450 mM NaCl, 30% glycerol. Two cell volumes of extraction buffer were used, and particulate material was centrifuged out (20800 g, 4° C., 10 min). The supernatant extract having deacetylase activity was aliquotted and frozen for storage.
A source of HDAC (e.g., 2 μL of crude HeLa extract, 5 μL of HDAC1 or HDAC2; in elution buffer, as above) was incubated with 3 μL of radioactively labelled peptide along with appropriate dilutions of candidate compounds (1.5 μL) in a total volume of 150 μL of buffer (20 mM Tris pH 7.4, 10% glycerol). The reaction was carried out at 37° C. for one hour, after which the reaction was stopped by adding 20 μL of 1 M HCl/0.4 M sodium acetate. […] Radioactivity was measured using a Tri-Carb 2100TR Liquid Scintillation Analyzer (Packard).
Percent activity (% activity) for each test compound was calculated as: % activity={(S^C−B)/(S^o−B)}×100 wherein S^C denotes signal measured in the presence of enzyme and the compound being tested, S^o denotes signal measured in the presence of enzyme but in the absence of the compound being tested, and B denotes the background signal measured in the absence of both enzyme and compound being tested.

JURKAT human T-cell line = assay: Secondary assay: cell proliferation WST-1, Jurkat; format: cell-based; details: Homo sapiens, 48 h, read-out: Cell Proliferation Inhibition WST-1 (IC50 unless otherwise specified) Jurkat
Procedure: as §1
JURKAT—Human T-cell line (ATCC no. TIB-152).
as §2, §3, §4, §5

[1] = tested on: K11 HPV E7 transformed human keratinocyte line; assay: Secondary assay: cell proliferation WST-1, K11; format: cell-based; details: Homo sapiens, Keratinocyte, 48 h, read-out: Cell Proliferation Inhibition WST-1 (IC50 unless otherwise specified) K11
Procedure: as §1
K11—HPV E7 transformed human keratinocyte line provided by Pidder Jansen-Duerr, Institut für Biomedizinische Alternsforschung, Innsbruck, Austria.
as §2, §3, §4, §5

[2] = read-out: HDAC Inhibition (IC50 unless otherwise specified) HeLa
[3] = comparative tables, read-out: HeLa IC50

Compound | pIC50 (HeLa cells) | HDAC Inhibition HeLa, percent (HDAC (HeLa cell extract)) [% @ 500 nM] | melting point [°C] | pIC50 (JURKAT human T-cell line) | pIC50 [1] | pIC50 (HDAC (HeLa cell extract); [2]) | pIC50 (HDAC (HeLa cell extract); [3]) | pIC50 (HDAC (HeLa cell extract); comparative tables, no unit in cell, read-out: HeLa IC50)
O=C(CCCCCNC(=O)[C@H](Cc1c[nH]c2ccccc12)NC(=O)CCCc1ccccc1)NO [PX117407, N-hydroxy-6-({(2S)-3-(1H-indol-3-yl)-2-[(4-phenylbutanoyl)amino]-propanoyl}amino)-hexanamide] | 4.89 | 40 | 106 to 108 |  |  |  |  | 
O=C(CCCCCNC(=O)c1ccc2ccccc2c1)NO [PX105687, Naphthalene-2-carboxylic acid (5-hydroxycarbamoylpentyl)amide] |  |  |  | 6.40 | 5.59 |  |  | 
O=C(CCCCCC(=O)NCCc1c[nH]c2ccccc12)NO [PX117408, N^1-Hydroxy-N^7-[2-(1H-indol-3-yl)ethyl]heptanediamide] | 4.96 | 41 | 140 to 142 |  |  |  |  | 
O=C(CCCCCNC(=O)c1cccc2ccccc12)NO [PX105828, Naphthalene-1-carboxylic acid (5-hydroxycarbamoyl-pentyl)-amide] | 4.77 |  | 118 to 119 |  |  | 6.48 | 6.48 | 
O=C(C#Cc1ccccc1)NCCCCCC(=O)NO [PX117415, 3-Phenyl-propynoic acid (5-hydroxycarbamoyl-pentyl)-amide] | 4.96 |  | 112 to 113 |  |  | 7.21 |  | 
O=C(/C=C/c1cccs1)NCCCCCC(=O)NO [PX117247, N-(5-Hydroxycarbamoyl-pentyl)-3-thiophen-2-yl-acrylamide] | 6.24 |  | 151 to 153 |  |  | 7.72 |  | 
CN(C)c1ccc(/C=C/C=C/C(=O)NCCCCCC(=O)NO)cc1 [PX106527, (2E,4E)-5-(4-Dimethylamino-phenyl)-penta-2,4-dienoic acid (5-hydroxycarbamoyl-pentyl)-amide] | 6.00 |  | 172 to 174 |  |  | 7.62 | 7.62 | 
O=C(CCCCCCC(=O)NCCc1c[nH]c2ccccc12)NO [PX116216, Octanedioic acid hydroxyamide [2-(1H-indol-3-yl)-ethyl]-amide] | 5.22 |  | 118.5 to 120 |  |  | 7.00 |  | 
O=C(CCCCCNC(=O)[C@H](Cc1c[nH]c2ccccc12)NC(=O)Cc1ccc2ccccc2c1)NO [PX117406, N-Hydroxy-6-[((2S)-3-(1H-indol-3-yl)-2-{[2-(2-naphthyl)acetyl]-amino}propanoyl)amino]-hexanamide] | 5.16 | 48 | 112 to 114 |  |  |  |  | 
CC(C)(C)c1ccc(C(=O)NCCCCCC(=O)NO)cc1 [PX106496, 4-tert-Butyl-N-(5-hydroxycarbamoylpentyl)benzamide] | 5.24 |  | 150 to 151.5 |  |  | 7.09 |  | 
O=C(CCCCCNC(=O)CCCCc1ccccc1)NO [PX117261, 6-(5-Phenyl-pentanoylamino)-hexanoic acid hydroxyamide] | 4.15 | 51 | 97 to 98 |  |  |  |  | 
CN(C)c1ccc(C(=O)NCCCCC(=O)NO)c2ccccc12 [PX082534, 4-Dimethylamino-napthalene-1-carboxylic acid (4-hydroxycarbamoyl-butyl)-amide] | 4.62 |  | 129 |  |  | 5.82 | 5.82 | 
CC(C)c1ccc(C(=O)NCCCCCC(=O)NO)cc1 [PX117421, N-[6-(Hydroxyamino)-6-oxohexyl]-4-isopropylbenzamide] | 5.51 |  | 127.5 to 128 |  |  | 7.07 |  | 
O=C(CCCCCNC(=O)CC/C=C\c1ccccc1)NO [PX117444, (Z)-N-[6-(Hydroxyamino)-6-oxohexyl]-5-phenyl4-pentenamide] | 4.35 |  | 101 to 103 |  |  | 6.16 |  | 
O=C(/C=C/C=C/c1ccc([N+](=O)[O-])cc1)NCCCCCC(=O)NO [PX105847, (2E,4E)-5-(4-Nitrophenyl)penta-2,4-dienoic acid (5-hydroxycarbamoyl-pentyl)-amide] | 5.08 |  | 111 to 113 |  |  | 7.12 |  | 
O=C(CCCCCNC(=O)c1ccco1)NO [PX105826, Furan-2-carboxylic acid (5-hydroxycarbamoyl-pentyl)-amide] | 4.74 |  | 113.5 to 115 |  |  | 6.40 | 6.40 | 
O=C(/C=C/C=C/c1ccccc1)NCCCCCCC(=O)NO [PX106518] | 6.19 |  | 147 to 149 |  |  | 7.21 |  | 7.21
O=C(CCCCCCC(=O)NCC(c1ccccc1)c1ccccc1)NO [PX117249, Octanedioic acid (2,2-diphenyl-ethyl)-amide hydroxyamide] | 4.96 | 64 | 123 to 123.5 |  |  |  |  | 
O=C(/C=C/C=C/c1ccccc1[N+](=O)[O-])NCCCCCC(=O)NO [PX105830, (2E,4E)-5-(2-Nitrophenyl)penta-2,4-dienoic acid (5-hydroxycarbamoyl-pentyl)amide] | 4.85 |  | 131 to 133 |  |  | 7.09 |  | 
C/C(=C\C=C\c1ccccc1)C(=O)NCCCCCC(=O)NO [PX106520, (2E,4E)-2-Methyl-5-phenylpenta-2,4-dienoic acid (5-hydroxycarbamoylpentyl)-amide] | 5.08 |  | 158 to 160 |  |  | 7.20 |  | 
C/C(=C\C#Cc1ccccc1)C(=O)NCCCCCC(=O)NO [PX117451, E-2-Methyl-5-phenylpent-2-en-4-ynoic acid (5-hydroxycarbamoyl-pentyl)amide] | 4.66 |  |  |  | 4.92 | 7.51 |  | 
O=C(CCCCCC(=O)Nc1ccc2ccccc2c1)NO [PX117461, Heptanedioic acid hydroxyamide naphthalen-2-ylamide] | < 5.30 |  | 142 to 144 |  |  | 7.70 |  | 
O=C(/C=C/c1ccco1)NCCCCCC(=O)NO [PX106491, 3-Furan-2-yl-N-(5-hydroxycarbamoyl-pentyl)-acrylamide] | 6.28 |  | 151 to 152.5 |  |  | 7.08 | 7.08 | 
O=C(CCCCCCC(=O)Nc1cccc2ccccc12)NO [PX116218, Octanedioic acid hydroxyamide naphthalen-1-ylamide] |  |  | 115 to 116.5 |  |  | 7.48 |  | 
O=C(CCCCNC(=O)c1ccc2ccccc2c1)NO [PX106492, Naphthalene-2-carboxylic acid (4-hydroxycarbamoyl-butyl)-amide] |  | 42 | 155 to 156 |  |  |  |  | 
